Assay results taken from paper PMC9774391 (ACS Omega, 2022).

What was measured:
[1] = target: AChE (Homo sapiens, UniProt P22303); test: biochemical; conditions: for inhibition at 1000 µM: 10^–3 M; for inhibition at 100 µM: 10^–4 M; for inhibition at 10 µM: 10^–5 M; for inhibition at 1 µM: 10^–6 M; for inhibition at 0.1 µM: 10^–7 M; for inhibition at 0.01 µM: 10^–8 M; for inhibition at 0.001 µM: 10^–9 M
Protocol: (§1) According to the modified Ellman approach outlined in our team’s earlier work, the AChE and BChE inhibitory activities of the obtained compounds were evaluated.[18]−[21]

[2] = target: BChE (Homo sapiens, UniProt P06276); test: biochemical; conditions: for inhibition at 1000 µM: 10^–3 M; for inhibition at 10 µM: 10^–5 M; for inhibition at 1 µM: 10^–6 M; for inhibition at 0.1 µM: 10^–7 M; for inhibition at 0.01 µM: 10^–8 M; for inhibition at 0.001 µM: 10^–9 M; for inhibition at 100 µM: 10^–4 M
Protocol: as §1

[3] = target: T1, MAO-A (Homo sapiens, UniProt P21397); test: In vitro MAO-A inhibition assay (fluorometric); format: biochemical; conditions: for inhibition at 1000 µM: 10^–3 M; for inhibition at 100 µM: 10^–4 M
T1 sequence (P21397 1-527): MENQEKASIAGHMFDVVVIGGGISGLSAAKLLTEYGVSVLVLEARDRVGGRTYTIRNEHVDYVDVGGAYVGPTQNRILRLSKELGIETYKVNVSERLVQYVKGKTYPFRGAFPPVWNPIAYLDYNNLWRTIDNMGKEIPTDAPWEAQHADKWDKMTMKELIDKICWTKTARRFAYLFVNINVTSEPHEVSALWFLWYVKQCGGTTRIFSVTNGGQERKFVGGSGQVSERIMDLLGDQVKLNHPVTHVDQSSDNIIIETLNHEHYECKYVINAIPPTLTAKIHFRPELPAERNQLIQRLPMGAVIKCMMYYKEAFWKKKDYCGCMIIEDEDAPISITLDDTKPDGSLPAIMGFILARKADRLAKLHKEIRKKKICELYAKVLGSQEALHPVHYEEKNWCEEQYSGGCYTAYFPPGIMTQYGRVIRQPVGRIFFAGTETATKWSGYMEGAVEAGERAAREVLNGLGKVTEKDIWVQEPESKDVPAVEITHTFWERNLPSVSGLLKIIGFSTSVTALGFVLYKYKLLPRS

[4] = target: T2, MAO-B (Homo sapiens, UniProt P27338); test: In vitro MAO-B inhibition assay (fluorometric); format: biochemical; conditions: for inhibition at 1000 µM: 10^–3 M; for inhibition at 100 µM: 10^–4 M
T2 sequence (P27338 1-520): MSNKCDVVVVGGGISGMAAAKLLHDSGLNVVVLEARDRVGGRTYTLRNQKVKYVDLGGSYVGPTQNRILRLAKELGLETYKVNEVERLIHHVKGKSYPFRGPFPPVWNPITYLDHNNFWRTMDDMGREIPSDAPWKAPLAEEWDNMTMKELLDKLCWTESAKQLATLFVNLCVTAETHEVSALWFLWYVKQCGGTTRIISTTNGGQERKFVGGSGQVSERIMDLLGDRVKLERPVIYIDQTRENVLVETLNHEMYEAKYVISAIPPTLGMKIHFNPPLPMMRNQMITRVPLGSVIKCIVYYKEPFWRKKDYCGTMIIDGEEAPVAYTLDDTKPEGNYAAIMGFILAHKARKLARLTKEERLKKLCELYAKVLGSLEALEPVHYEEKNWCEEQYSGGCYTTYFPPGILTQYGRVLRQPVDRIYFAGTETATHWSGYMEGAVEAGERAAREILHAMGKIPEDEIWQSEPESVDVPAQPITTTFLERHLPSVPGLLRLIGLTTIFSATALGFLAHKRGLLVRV

[5] = DPPH free-radical scavenging activity assay; conditions: for IC50: serial dilution 10^–3–10^–9 M, read-out: IC50 on DPPH antioxidant activity
Protocol: This approach is based on evaluating the free-radical scavenging abilities of the stable 1,1-diphenyl-2-picrylhydrazyl (DPPH) radical. To create the DPHH solution, 9.86 mg of DPPH was weighed and diluted to 25 mL with methanol. The test wells were then filled with 100 μL of the DPPH solution and 100 μL of the test solutions. Only 200 μL of methanol was used for the blank reading, while the control reading required the usage of 100 μL each of methanol and the DPPH solution. Following incubation, a spectrophotometric measurement at 517 nm was carried out.[26],[27]

[6] = Cytotoxicity test (MTT); format: cell-based; conditions: NIH/3T3 mouse embryonic fibroblast cells (ATCC CRL-1658), NIH/3T3 mouse fibroblast healthy cell line
Protocol: The NIH/3T3 cells were incubated according to the manufacturer’s recommendations. In 96-well plates, NIH/3T3 cells were seeded at a density of 1 × 10^4 cells per well. The MTT test was conducted in line with the previously mentioned standards.[19],[22],[23],[28],[30]

[7] = target: T3, Beta Amyloid 1–42 (Aβ42) (Homo sapiens, UniProt P05067); test: Beta Amyloid 1–42 (Aβ42) inhibitor screening assay; format: biochemical; conditions: 10^–4 M; read-out: % β-amyloid plaque inhibition
T3 construct: The Beta Amyloid 1–42 (Aβ42) Ligand Screening Assay kit; purchased BioVision, Milpitas, CA
Excerpt: The Beta Amyloid 1–42 (Aβ42) Ligand Screening Assay kit (BioVision, Milpitas, CA) technique based on the fluorometric approach served as the basis for the experimental process.[21],[28],[29]

Chain of AChE (P22303 32-614): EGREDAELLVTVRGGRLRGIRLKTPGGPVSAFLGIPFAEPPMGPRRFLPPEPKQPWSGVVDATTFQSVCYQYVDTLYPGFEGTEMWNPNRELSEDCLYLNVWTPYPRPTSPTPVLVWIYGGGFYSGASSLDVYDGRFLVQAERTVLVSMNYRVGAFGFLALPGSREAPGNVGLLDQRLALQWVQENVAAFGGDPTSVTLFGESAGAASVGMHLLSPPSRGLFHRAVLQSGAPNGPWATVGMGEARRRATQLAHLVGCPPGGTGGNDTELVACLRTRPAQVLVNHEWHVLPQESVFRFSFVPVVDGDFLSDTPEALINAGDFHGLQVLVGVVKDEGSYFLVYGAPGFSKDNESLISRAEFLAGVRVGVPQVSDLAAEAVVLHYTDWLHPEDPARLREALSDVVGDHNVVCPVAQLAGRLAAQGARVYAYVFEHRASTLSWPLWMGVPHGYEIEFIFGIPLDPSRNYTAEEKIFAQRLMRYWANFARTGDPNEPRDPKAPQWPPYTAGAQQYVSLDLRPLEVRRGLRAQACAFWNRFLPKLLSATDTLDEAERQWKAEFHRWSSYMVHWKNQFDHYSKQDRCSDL
Chain of BChE (P06276 29-602): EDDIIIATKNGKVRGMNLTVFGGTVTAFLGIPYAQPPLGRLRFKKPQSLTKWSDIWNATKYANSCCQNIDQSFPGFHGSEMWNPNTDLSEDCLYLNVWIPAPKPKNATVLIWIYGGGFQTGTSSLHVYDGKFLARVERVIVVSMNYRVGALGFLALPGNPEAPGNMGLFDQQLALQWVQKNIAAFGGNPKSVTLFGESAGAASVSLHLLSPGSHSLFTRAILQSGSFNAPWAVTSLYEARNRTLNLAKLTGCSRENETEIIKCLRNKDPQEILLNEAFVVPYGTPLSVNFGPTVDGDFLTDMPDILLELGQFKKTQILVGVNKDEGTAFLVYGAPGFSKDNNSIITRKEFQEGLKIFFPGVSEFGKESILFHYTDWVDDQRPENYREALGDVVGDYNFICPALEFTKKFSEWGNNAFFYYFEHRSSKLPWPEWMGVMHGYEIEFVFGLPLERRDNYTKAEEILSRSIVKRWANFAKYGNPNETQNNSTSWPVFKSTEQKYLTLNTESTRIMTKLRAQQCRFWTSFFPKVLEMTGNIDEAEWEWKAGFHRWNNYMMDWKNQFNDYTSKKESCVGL
T3 sequence (P05067 672-713 limits assumed): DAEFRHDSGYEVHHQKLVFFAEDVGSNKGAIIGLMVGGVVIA

Row | Compound | IC50 [1] [nM] | inhibition at 1000 µM [1] [%] | inhibition at 100 µM [1] [%] | inhibition at 10 µM [1] [%] | inhibition at 1 µM [1] [%] | inhibition at 0.1 µM [1] [%] | inhibition at 0.01 µM [1] [%] | inhibition at 0.001 µM [1] [%] | inhibition at 1000 µM [2] [%] | inhibition at 1000 µM [3] [%] | inhibition at 100 µM [3] [%] | inhibition at 1000 µM [4] [%] | inhibition at 100 µM [4] [%] | IC50 [5] [nM] | IC50 [6] [nM] | inhibition at 100 µM [2] [%] | also measured
1 | COc1ccc2c(c1)C(=O)/C(=C/c1ccc(NC(=O)CN(C)CCN(C)C)cc1)C2 [D35] | 215 ± 8.8 | 95.7 ± 1.2 | 91.7 ± 1.47 | 73.2 ± 1.12 | 61.8 ± 1.08 | 42.9 ± 0.628 | 33.6 ± 0.52 | 21.5 ± 0.448 | 90.2 ± 1.39 | 88.46 ± 0.758 | 21.7 ± 0.623 | 90.7 ± 1.25 | 42.5 ± 0.547 | 238 ± 11 | 53900 ± 1220 | – | IC50 [2]: 151 ± 4.8 nM; inhibition at 10 µM [2]: 74.6 ± 1.13%; inhibition at 1 µM [2]: 65.9 ± 1.01%; inhibition at 0.1 µM [2]: 54.9 ± 0.974%; inhibition at 0.01 µM [2]: 33.4 ± 0.814%; inhibition at 0.001 µM [2]: 18 ± 0.411%
2 | COc1cc2c(cc1OC)C(=O)/C(=C/c1ccc(NC(=O)CN3CCN(CCCN(C)C)CC3)cc1)C2 [D27] | 130 ± 4.2 | 91.2 ± 1.3 | 87.3 ± 1.12 | 82.1 ± 1.03 | 73.3 ± 0.994 | 41.2 ± 0.562 | 31.6 ± 0.389 | 22.5 ± 0.419 | 94.83 ± 0.731 | 95.08 ± 0.687 | 44.4 ± 2.29 | 94.6 ± 1.02 | 43.1 ± 0.452 | 310 ± 13 | 10500 ± 467 | 35.9 ± 0.444 | –
3 | COc1cc2c(cc1OC)C(=O)/C(=C/c1ccc(NC(=O)CN(C)CCN(C)C)cc1)C2 [D36] | 235 ± 11.3 | 91.9 ± 1.47 | 86.6 ± 1.57 | 78.6 ± 1.03 | 58.8 ± 0.893 | 38.2 ± 0.539 | 33.1 ± 0.491 | 20.6 ± 0.374 | 100 ± 1.25 | 82.4 ± 0.873 | 43 ± 0.771 | 84.6 ± 1.01 | 45.2 ± 0.584 | 251 ± 10 | 3620 ± 129 | 41 ± 0.608 | –
4 | COc1ccc2c(c1)C/C(=C\c1ccc(NC(=O)CN(C)CCN(C)C)cc1)C2=O [D34] | 191 ± 8.7 | 98.3 ± 1.11 | 91.1 ± 1.36 | 76 ± 1.12 | 63.4 ± 0.985 | 41.2 ± 0.528 | 32.5 ± 0.588 | 23.5 ± 0.429 | 91.6 ± 1.03 | 82.1 ± 1.25 | 38.3 ± 0.458 | 78.5 ± 1.31 | 47.3 ± 0.676 | 302 ± 14 | 75500 ± 2180 | – | IC50 [2]: 132 ± 5.1 nM; inhibition at 10 µM [2]: 76.3 ± 1.14%; inhibition at 1 µM [2]: 71.9 ± 1.01%; inhibition at 0.1 µM [2]: 49.7 ± 0.856%; inhibition at 0.01 µM [2]: 31.5 ± 0.405%; inhibition at 0.001 µM [2]: 20.5 ± 0.399%
5 | O=C(O)CC(O)(CC(=O)O)C(=O)O [citric acid, reference compound] | – | – | – | – | – | – | – | – | – | – | – | – | – | 194 ± 9 | – | – | % DPPH free-radical scavenging (antioxidant) activity ([5]; 10^–3 M): 99.48% ± 1.45; % DPPH free-radical scavenging (antioxidant) activity ([5]; 10^–4 M): 94.26% ± 1.37
6 | O=C1O[C@H]([C@@H](O)CO)C(O)=C1O [ascorbic acid, reference compound] | – | – | – | – | – | – | – | – | – | – | – | – | – | 165 ± 7 | – | – | % DPPH free-radical scavenging (antioxidant) activity ([5]; 10^–3 M): 98.75% ± 1.67; % DPPH free-radical scavenging (antioxidant) activity ([5]; 10^–4 M): 95.22% ± 1.47
7 | COc1ccc2c(c1)C/C(=C\c1ccc(NC(=O)CN3CCN(CCCO)CC3)cc1)C2=O [D19] | 32.4 ± 1.2 | 95.2 ± 1.65 | 92.7 ± 1.25 | 89.2 ± 1.08 | 82.1 ± 0.988 | 70.7 ± 1.07 | 33.6 ± 0.624 | 20.6 ± 0.596 | 83.5 ± 1.37 | 60.9 ± 1.86 | 25.3 ± 0.632 | 90.2 ± 1.46 | 43.2 ± 0.877 | 362 ± 15 | 10500 ± 517 | 32.5 ± 0.337 | % DPPH free-radical scavenging activity ([5]; concentration not stated in the sentence (Figure 6)): ≥ 90%
8 | COc1ccc2c(c1)C/C(=C\c1ccc(NC(=O)CN3CCN(CCN(C)C)CC3)cc1)C2=O [D22] | 52.7 ± 1.6 | 91.9 ± 1.47 | 86.6 ± 1.57 | 79 ± 1.17 | 70.4 ± 1.07 | 63.4 ± 0.988 | 43 ± 0.633 | 18.8 ± 0.521 | 99.5 ± 1.23 | 76.9 ± 0.232 | 37.5 ± 0.411 | 85.3 ± 0.957 | 48.6 ± 0.605 | – | 32500 ± 523 | 39.5 ± 0.97 | inhibition at 100 µM [7]: > 50%
9 | COc1cc2c(cc1OC)C(=O)/C(=C/c1ccc(NC(=O)CN3CCN(CCCO)CC3)cc1)C2 [D21] | 29.2 ± 0.8 | 95.7 ± 1.2 | 91.7 ± 1.47 | 87.3 ± 1.3 | 81.8 ± 1.1 | 70.6 ± 1 | 38.3 ± 0.678 | 19.3 ± 0.593 | 99.7 ± 2.82 | 91.2 ± 1.21 | 26.9 ± 0.541 | 93.5 ± 1.38 | 46.2 ± 0.587 | – | 39500 ± 1820 | 40.6 ± 0.978 | inhibition at 100 µM [7]: > 50%
